≈ marks a conversion by molar mass, not a printed value.

Common to all, as to experiment: Antibacterial activity in vitro, MIC by broth microdilution
One test concerns H. influenzae Hain_49247. Type of test: cell-based, Haemophilus influenzae. Conditions: Table 5, Strain ID M: H. influenzae Hain_49247; unit assumed. The protocol:
(§1) Representative compounds of the present invention were assayed in vitro for antibacterial activity against the bacterial isolates listed in Table 1 as follows:
(§2) The bacterial isolates listed in Table 1 were cultivated from −70° C. frozen stocks by two consecutive overnight passages (P1, P2) at 35° C. on 5% blood agar (Remel, Lenexa, Kans.). Chocolate agar (Remel) is used for Haemophilus influenzae. H. influenzae and Streptococcus pneumoniae are incubated in 5-10% CO2.
(§3) To determine the amount of solvent to be used to give the desired final concentration, the formula “weight obtained in mg/final concentration in mg/mL” will be used. It will give the amount of solvent in mL needed to be added to give the desired concentration. For example, if 2.5 mg/mL is the desired concentration and the weight of compound is 13.7 mg, then the amount of solvent to be added is 3.94 mL (13.7 mg/2.5 mg/mL=3.94 mLs). Methanol is used as the solvent to dissolve the test compounds. Further dilution of stock is done in sterile, deioinzed water. Drug stocks are kept frozen at −70° C., protected from light.
(§4) MICs are determined by the broth microdilution method in accordance with the NCCLS guidelines. In brief, organism suspensions are adjusted to a 0.5 McFarland standard to yield a final inoculum between 3×10^5 and 7×10^5 CFU/mL. Drug dilutions and inocula are made in sterile, cation adjusted Mueller-Hinton Broth (CAMHB) (Remel) for all but S. pneumoniae [CAMHB with 2-5% lysed horse blood (Remel)] and H. influenzae [Haemophilus Test Medium (Remel)]. An inoculum volume of 100 μl is added to wells containing 100 μl of broth with 2-fold serial dilutions of drug. All inoculated microdilution trays are incubated in ambient air at 35° C. for 18-24 hours, except for S. pneumoniae, and H. influenzae (both at 5-10% CO2).
(§5) Following appropriate incubation, the MIC is determined and the MIC is defined as the lowest concentration of the drug that prevented visible growth.

The test system of test [1] is S. pneumoniae Stpn_Mef 5654. Type of test: cell-based, Streptococcus pneumoniae. Conditions: Table 5, Strain ID K: S. pneumoniae Stpn_Mef 5654; unit assumed. The protocol:
as §1, §2, §3, §4, §5

Test [2] relates to S. pneumoniae Stpn_Mef S 3427. Type of test: cell-based, Streptococcus pneumoniae. The conditions noted are these: Table 5, Strain ID L: S. pneumoniae Stpn_Mef S 3427. The protocol:
as §1, §2, §3, §4, §5

Another test deals with S. pneumoniae Stpn_49619. Type of test: cell-based, Streptococcus pneumoniae. The conditions noted are these: Table 5, Strain ID F: S. pneumoniae Stpn_49619. The protocol: as §1, §2, §3, §4, §5
In test [3] the test system is S. pneumoniae Stpn_Erm 6849. Type of test: cell-based, Streptococcus pneumoniae. The conditions noted are these: Table 5, Strain ID I: S. pneumoniae Stpn_Erm 6849. The protocol:
as §1, §2, §3, §4, §5

The test system of test [4] is S. pneumoniae Stpn_280-962 Pen S. Type of test: cell-based, Streptococcus pneumoniae. The conditions noted are these: Table 5, Strain ID H: S. pneumoniae Stpn_280-962. The protocol: as §1, §2, §3, §4, §5
For test [5], the system named is S. pneumoniae Stpn_Erm S 4297. Type of test: cell-based, Streptococcus pneumoniae. The conditions noted are these: Table 5, Strain ID J: S. pneumoniae Stpn_Erm S 4297. On the procedure:
as §1, §2, §3, §4, §5

For test [6], the system named is S. pneumoniae Stpn_297-749 Pen R. Type of test: cell-based, Streptococcus pneumoniae. Conditions: Table 5, Strain ID G: S. pneumoniae Stpn_297-749. On the procedure:
as §1, §2, §3, §4, §5

The next test concerns E. faecalis Enfa_29212. Type of test: cell-based. The conditions noted are these: Table 5, Strain ID D: E. faecalis Enfa_29212; unit assumed. On the procedure:
as §1, §2, §3, §4, §5

In test [7] the test system is S. epidermidis Step_f50654 Pen S. Type of test: cell-based. Conditions: Table 5, Strain ID C: S. epidermidis Step_f50654; unit assumed. On the procedure: as §1, §2, §3, §4, §5
The next test has as its system S. aureus Stau_29213. Type of test: cell-based. Conditions: Table 5, Strain ID A: S. aureus Stau_29213; unit assumed. On the procedure: as §1, §2, §3, §4, §5
Test [8] concerns S. epidermidis Step_14990. Type of test: cell-based. The conditions noted are these: Table 5, Strain ID B: S. epidermidis Step_14990; unit assumed. On the procedure:
as §1, §2, §3, §4, §5

A further test has as its system S. pyogenes Stpy_8668. Type of test: cell-based. The conditions noted are these: Table 5, Strain ID E: S. pyogenes Stpy_8668. The protocol: as §1, §2, §3, §4, §5

As to `C=C[C@]12OC(=O)N(CCCCn3cnc(-c4cccnc4)c3)[C@@H]1[C@@H](C)C(=O)[C@H](C)C[C@@](C)(OC)[C@H](OC1O[C@H](C)C[C@H](N(C)C)[C@H]1O)[C@@H](C)C(=O)[C@@H](C)C(=O)O[C@@H]2CC` (stereo partly drawn) [Example 48, (3aS,4R,7R,9R,10R,11R,13R,15R,15aR)-4-ethyl-11-methoxy-7,9,11,13,15-pentamethyl-2,6,8,14-tetraoxo-1-[4-(4-pyridin-3-yl-1H-imidazol-1-yl)butyl]-3a-vinyltetradecahydro-2H-oxacyclotetradecino[4,3-d][1,3]oxazol-10-yl 3,4,6-trideoxy-3-(dimethylamino)-D-xylo-hexopyranoside], the MIC was 3.13 µg/mL (≈ 3.8 µM) in the test on H. influenzae Hain_49247; 0.78 µg/mL (≈ 0.947 µM) in test [1]; 0.1 µg/mL (≈ 0.121 µM) in test [2] (unit assumed); “≦0.05” against S. pneumoniae Stpn_49619; 0.4 µg/mL (≈ 0.485 µM) in [3] (unit assumed); “≦0.05” in test [4]. Further, the MIC entry in test [5] is “≦0.05”; in test [6], “≦0.05”; with E. faecalis Enfa_29212, 0.1 µg/mL (≈ 0.121 µM); in test [7], 0.2 µg/mL (≈ 0.243 µM); against S. aureus Stau_29213, 0.2 µg/mL (≈ 0.243 µM); in [8], 0.2 µg/mL (≈ 0.243 µM). In addition, the MIC result against S. pyogenes Stpy_8668 is given as “≦0.05”.

Turning to `CC[C@H]1OC(=O)[C@H](C)C(=O)[C@H](C)[C@@H](OC2O[C@H](C)C[C@H](N(C)C)[C@H]2O)[C@@](C)(OC)C[C@@H](C)C(=O)[C@H](C)[C@H]2N(CCCCn3cc(-c4cccnc4)nc3C)C(=O)O[C@]12CC` (stereo partly drawn) [Example 20, (3aS,4R,7R,9R,10R,11S,13R,15R,15aR)-3a,4-diethyl-11-methoxy-7,9,11,13,15-pentamethyl-1-[4-(2-methyl-4-pyridin-3-yl-1H-imidazol-1-yl)butyl]-2,6,8,14-tetraoxotetradecahydro-2H-oxacyclotetradecino[4,3-d][1,3]oxazol-10-yl 3,4,6-trideoxy-3-(dimethylamino)-D-xylo-hexopyranoside], the MIC against H. influenzae Hain_49247 was 6.25 µg/mL (≈ 7.44 µM); in [1] it was 0.4 µg/mL (≈ 0.476 µM); in test [2] it was “≦0.05”; against S. pneumoniae Stpn_49619 it was “≦0.05”; in [3] it was “≦0.5”; in test [4], “≦0.05”. Besides, the MIC result was “≦0.05” in [5]; “≦0.05” in test [6]; 0.1 µg/mL (≈ 0.119 µM) with E. faecalis Enfa_29212; 0.2 µg/mL (≈ 0.238 µM) in test [7]; 0.2 µg/mL (≈ 0.238 µM) in the test on S. aureus Stau_29213; 0.1 µg/mL (≈ 0.119 µM) in [8]. The MIC result with S. pyogenes Stpy_8668 was “≦0.05”.

As to `CC[C@H]1OC(=O)[C@H](C)C(=O)[C@H](C)[C@@H](OC2O[C@H](C)C[C@H](N(C)C)[C@H]2O)[C@@](C)(OC)C[C@@H](C)C(=O)[C@H](C)[C@H]2N(CCCC(C)(C)n3cnc4cccnc43)C(=O)O[C@]12CC` (stereo partly drawn) [Example 38, (3aS,4R,7R,9R,10R,11S,13R,15R,15aR)-3a,4-diethyl-1-[4-(3H-imidazol[4,5-b]pyridin-3-yl)-4-methylpentyl]-11-methoxy-7,9,11,13,15-pentamethyl-2,6,8,14-tetraoxotetradecahydro-2H-oxacyclotetradecino[4,3-d][1,3]oxazol-10-yl 3,4,6-trideoxy-3-(dimethylamino)-D-xylo-hexopyranoside], the MIC is 6.25 µg/mL (≈ 7.55 µM) in the test with H. influenzae Hain_49247; 0.78 µg/mL (≈ 0.942 µM) in [1]; 0.1 µg/mL (≈ 0.121 µM) in test [2] (unit assumed); “≦0.05” against S. pneumoniae Stpn_49619; 0.4 µg/mL (≈ 0.483 µM) in test [3] (unit assumed); “≦0.05” in test [4]. Further, the MIC in test [5] (unit assumed) is 0.1 µg/mL (≈ 0.121 µM); in test [6] it was “≦0.05”; in the test with E. faecalis Enfa_29212 it was 0.1 µg/mL (≈ 0.121 µM); in [7], 0.2 µg/mL (≈ 0.242 µM); with S. aureus Stau_29213, 0.2 µg/mL (≈ 0.242 µM); in test [8] it was 0.2 µg/mL (≈ 0.242 µM). The MIC result with S. pyogenes Stpy_8668 is listed as “≦0.05”.

The values are drawn from patent publication US6756359B2, “C12 modified erythromycin macrolides and ketolides having antibacterial activity” (Chiron Corporation, priority 2001, dated 2004).
